{"source": "patent US7754701B2", "about": "“Difructose anhydride-containing composition and use thereof” (Fancl Corporation, priority 2002, dated 2010)", "key": {"[1]": {"test": "Effectiveness on defecation in human", "assay_type": "in vivo", "conditions": "3 g once a day for one month; for Feeling of defecation: Much better (number of subjects) / Feeling of defecation: No change (number of subjects) / Feeling of defecation: Slightly better (number of subjects) / Feeling of defecation: Slightly worse (number of subjects) / Feeling of defecation: Worse (number of subjects) / Stool properties, change observed: Constipation (worse after ingestion; number of subjects) / Stool properties, change observed: Normal stool (number of subjects) / Stool properties, change observed: Soft stool (number of subjects) / Stool properties, change observed: Solid stool (number of subjects) / Stool properties: No change (number of subjects): fifty adults; for Stool properties, change observed: Diarrhea (number of subjects): fifty adults with tendency of constipation", "method": "Fifty adults who were healthy but aware of their poor stool frequency and tendency of constipation were given with 3 g of DFA III, 3 g of melibiose or 3 g of placebo (starch) once a day for one month. The defecation condition was recorded and stool properties and feeling of defecation were studied."}, "[2]": {"test_system": "Streptococcus mutans MT 8148", "test": "Acid production by Streptococcus mutans, DFA and palatinose (Example 10), strain MT 8148", "assay_type": "cell-based", "conditions": "10 ml of 1% solution added to 2 ml cell suspension, 37° C., FIG. 7", "method": "(§1) Dental caries causative bacteria (Streptococcus mutans) MT 8148 and 6715 strains provided by a microbial lineage storage laboratory of The Institute of Physical Chemical Research (Riken) were cultured on a brain heart infusion broth medium overnight and then cells were collected by centrifugation. The cells were washed twice with a phosphate buffered (5 mM) physiological saline solution (pH 7.0) and then suspended in the same saline solution. Ten milliliters each of a 1% palatinose solution, 1% DFA III, a 1% palatinose solution with 1% DFA III added were added to 2 ml of this concentrated cell suspension. Immediately, reaction was carried out at 37° C. and then change with time in pH of each reaction mixture was measured."}, "[3]": {"test_system": "Streptococcus mutans MT 8148", "test": "Acid production by Streptococcus mutans (Example 9), strain MT 8148", "assay_type": "cell-based", "conditions": "10 ml of 5% solution added to 2 ml cell suspension, 37° C., FIG. 6", "method": "as §1, with “5%” for “a 1% palatinose solution, 1%”, “sorbitol, palatinose, xylitol, and sucrose solutions” for “a 1% palatinose solution with 1% DFA III added”"}, "[4]": {"test_system": "small intestines (jejunum and ileum) and large intestines (cecum and colon) mucous membrane specimen", "test": "Magnesium absorption in Ussing chamber", "set-up": "species or system rat", "conditions": "DFA III 0, 1, 10, 100 mM on mucous membrane side, 37° C., 30 minutes, FIG. 1", "method": "Acceleration of magnesium absorption by DFA III was confirmed by using an Ussing chamber as follows.\nIn this experiment, 7 to 8 weeks old Sprague-Dawley male rats (with an average body weight of about 260 g) were used.\nThe rats were purchased at 6 weeks of age (Japan SLC) and fed on a commercial solid feed (CE-2, Japan CLEA) until the start of the experiment.\nOn the day of the experiment, rats were injected intraperitoneally with sodium pentobarbital and the small intestines (cejunum and ileum) and the large intestines (cecum and colon) were extracted under the anaesthetization. Contents of each of the intestines were removed, the intestines were opened, and the serous membrane and the layer of smooth muscle were peeled off to prepare a specimen comprising the mucous membrane and submucosal tissue, which was then loaded onto an Ussing chamber (with an effective area of 0.67 cm^2).\nSeparately, a buffer solution for the mucous membrane side and a buffer solution for serous membrane side were prepared. The buffer solution for mucous membrane side was basically comprised of the following ingredients. […]\nAfter the incubation was completed, the solution of serous membrane side was recovered and the Mg concentration in the solution was measured using a commercial kit (Wako Pure Chemicals). […]"}, "[5]": {"test_system": "small intestines (jejunum and ileum) and large intestines (cecum and colon) mucous membrane specimen", "test": "Zinc absorption in Ussing chamber", "set-up": "species or system rat", "conditions": "DFA III 0 to 100 mM, FIG. 2"}, "[6]": {"test_system": "small intestines (jejunum and ileum) and large intestines (cecum and colon) mucous membrane specimen", "test": "Copper absorption in Ussing chamber", "set-up": "species or system rat", "conditions": "DFA III 0 to 100 mM, FIG. 3"}, "[7]": {"test_system": "serum osteocalcin", "test": "Bone formation in human: serum osteocalcin, DFA III alone (Example 6)", "assay_type": "in vivo", "conditions": "3 g DFA III 3 times a day for 2 weeks", "method": "Twenty-three healthy adult males and females on normal diet were administered with 3 g of DFA III 3 times a day for 2 weeks to study the change in serum osteocalcin concentration."}, "[8]": {"test_system": "mice", "test": "Acute toxicity test in mice", "assay_type": "in vivo", "conditions": "10 days, 1000 mg/kg of oral administration", "excerpt": "Further, DFA, an effective component of the invention, has no problem in its safety."}, "[9]": {"test_system": "serum osteocalcin", "test": "Bone formation in human: serum osteocalcin, DFA III with calcium carbonate (Example 5)", "assay_type": "in vivo", "conditions": "1 g DFA III and 0.25 g calcium carbonate 3 times a day for 2 weeks vs calcium carbonate alone; fourteen healthy adult males; FIG. 5", "method": "Fourteen healthy adult males were administered with 1 g of DFA III and 0.25 g of calcium carbonate or 0.25 g of placebo (calcium carbonate) 3 times a day for 2 weeks to study the change in serum osteocalcin concentration."}, "[10]": {"test": "Diuretic test using DFA III", "assay_type": "in vivo, human", "excerpt": "DFA III was made into granules to make a granular food product. Since granulation was possible without excipient, the DFA content was 100%. Six healthy males were given with 1 g/day of this granular food product together with water consecutively for 1 week in the first period of the test. Then, after a week of the washout period, the same 6 healthy subjects were given with 1 g/day of sugar together with water consecutively for 1 week in the second period of the test.\nDuring the test periods, all subjects lived under the same environment, doing the same level of exercise and taking the same amount of diet and drinking water. The whole volume of urine excreted during the test periods was recovered and the volume was measured to obtain a daily average urine volume to compare the two test periods."}, "[11]": {"test_system": "serum osteocalcin", "test": "Bone formation in human: serum osteocalcin, DFA III with calcium lactate (Example 4)", "assay_type": "in vivo", "conditions": "3 g DFA III and 0.77 g calcium lactate 3 times a day for 1 week vs calcium lactate alone; six healthy adult males; FIG. 4", "method": "Six healthy adult males were administered with 3 g of DFA III and 0.77 g of calcium lactate or 0.77 g of placebo (calcium lactate) 3 times a day for 1 week to study the change in serum osteocalcin concentration."}}, "note": "“And” between values parts separate entries of the source, which are not always exact repeats. Identical values can stand only once.", "data": [{"molecule": "OC[C@H]1O[C@H](OCC2O[C@@H](O)[C@H](O)[C@@H](O)[C@@H]2O)[C@H](O)[C@@H](O)[C@H]1O", "note": "(stereo partly shown) [melibiose]", "values": [{"measurement": "Feeling of defecation: Much better (number of subjects)", "setting": "[1]", "value": 22}, {"measurement": "Feeling of defecation: No change (number of subjects)", "setting": "[1]", "value": 0}, {"measurement": "Feeling of defecation: Slightly better (number of subjects)", "setting": "[1]", "value": 28}, {"measurement": "Feeling of defecation: Slightly worse (number of subjects)", "setting": "[1]", "value": 0}, {"measurement": "Feeling of defecation: Worse (number of subjects)", "setting": "[1]", "value": 0}, {"measurement": "Stool properties, change observed: Constipation (worse after ingestion; number of subjects)", "setting": "[1]", "value": 0}, {"measurement": "Stool properties, change observed: Normal stool (number of subjects)", "setting": "[1]", "value": 40}, {"measurement": "Stool properties, change observed: Soft stool (number of subjects)", "setting": "[1]", "value": 8}, {"measurement": "Stool properties, change observed: Solid stool (number of subjects)", "setting": "[1]", "value": 2}, {"measurement": "Stool properties: No change (number of subjects)", "setting": "[1]", "value": 0}, {"measurement": "Stool properties, change observed: Diarrhea (number of subjects)", "setting": "[1]", "value": 0}]}, {"molecule": "OC[C@H]1O[C@H](OC[C@H]2OC(O)(CO)[C@@H](O)[C@@H]2O)[C@H](O)[C@@H](O)[C@@H]1O", "note": "(stereo partly shown) [palatinose, reference compound]", "values": [{"measurement": "acid production (change with time in pH of reaction mixture)", "setting": "[2]", "value": "acid was produced"}, {"measurement": "acid production (change with time in pH of reaction mixture)", "setting": "[3]", "value": "almost no acid"}]}, {"molecule": "OC[C@H]1O[C@@]2(CO[C@]3(CO)O[C@H](CO)[C@@H](O)[C@@H]3O2)[C@@H](O)[C@@H]1O", "note": "[DFA III, difructose anhydride III]", "values": [{"measurement": "Mg absorption (net rate, mucous to serous membrane side)", "setting": "[4]", "value": "evidently increased"}, {"measurement": "Feeling of defecation: Much better (number of subjects)", "setting": "[1]", "value": 23}, {"measurement": "Feeling of defecation: No change (number of subjects)", "setting": "[1]", "value": 0}, {"measurement": "Feeling of defecation: Slightly better (number of subjects)", "setting": "[1]", "value": 27}, {"measurement": "Feeling of defecation: Slightly worse (number of subjects)", "setting": "[1]", "value": 0}, {"measurement": "Feeling of defecation: Worse (number of subjects)", "setting": "[1]", "value": 0}, {"measurement": "Stool properties, change observed: Constipation (worse after ingestion; number of subjects)", "setting": "[1]", "value": 0}, {"measurement": "Stool properties, change observed: Normal stool (number of subjects)", "setting": "[1]", "value": 39}, {"measurement": "Stool properties, change observed: Soft stool (number of subjects)", "setting": "[1]", "value": 7}, {"measurement": "Stool properties, change observed: Solid stool (number of subjects)", "setting": "[1]", "value": 3}, {"measurement": "Stool properties: No change (number of subjects)", "setting": "[1]", "value": 0}, {"measurement": "Stool properties, change observed: Diarrhea (number of subjects)", "setting": "[1]", "value": 0}, {"measurement": "Zn absorption (net rate, mucous to serous membrane side)", "setting": "[5]", "value": "evidently increased"}, {"measurement": "Cu absorption (net rate, mucous to serous membrane side)", "setting": "[6]", "value": "evidently increased"}, {"measurement": "level of osteocalcin, change by ingestion", "setting": "[7]; no added calcium", "value": "increased"}, {"measurement": "Serum osteocalcin concentration, After ingestion", "setting": "[7]; 23 healthy adults on normal diet, Average ± SD", "value": "5.7 ± 1.5", "unit": "ng/mL"}, {"measurement": "Serum osteocalcin concentration, Before ingestion", "setting": "[7]; 23 healthy adults on normal diet, Average ± SD, *p < 0.1", "value": "7.0 ± 2.0* ng/ml"}, {"measurement": "acid production (change with time in pH of reaction mixture)", "setting": "[2]", "value": "almost no acid was produced"}, {"measurement": "acute toxicity (death)", "setting": "[8]", "value": "no death"}, {"measurement": "level of osteocalcin (serum), change", "setting": "[9]", "value": "increased more"}, {"measurement": "acid production (change with time in pH of reaction mixture)", "setting": "[3]", "value": "almost no acid"}, {"measurement": "Average daily urine volume", "setting": "[10]; 1 g/day DFA III granular food product with water for 1 week, individual subjects A-F, healthy males", "value": "2600 mL and 2950 mL and 2560 mL and 2850 mL and 3010 mL and 2050 mL"}, {"measurement": "abnormal subjective findings", "setting": "[10]; 1 g/day for 1 week", "value": "no abnormal subjective findings"}, {"measurement": "average daily urine volume, first vs second test period", "setting": "[10]; all individual subjects, DFA III 1 g/day vs sugar 1 g/day", "value": "evidently greater"}, {"measurement": "biochemical blood tests (liver function, renal function, blood pressure, blood cell counts, total Chol, TG)", "setting": "[10]; first test period (DFA III) vs second test period (sugar)", "value": "the same"}, {"measurement": "level of osteocalcin (serum), change", "setting": "[11]", "value": "increased more"}]}, {"molecule": "OC[C@H]1O[C@@](CO)(O[C@H]2O[C@H](CO)[C@@H](O)[C@H](O)[C@H]2O)[C@@H](O)[C@@H]1O", "note": "[sucrose]", "values": [{"measurement": "acid production (change with time in pH of reaction mixture)", "setting": "[3]", "value": "evidently lowered the pH"}]}, {"molecule": "OC[C@@H](O)[C@H](O)[C@@H](O)CO", "note": "[xylitol]", "values": [{"measurement": "acid production (change with time in pH of reaction mixture)", "setting": "[3]", "value": "almost no acid"}]}, {"molecule": "OC[C@@H](O)[C@@H](O)[C@H](O)[C@@H](O)CO", "note": "[sorbitol]", "values": [{"measurement": "acid production (change with time in pH of reaction mixture)", "setting": "[3]", "value": "almost no acid"}]}, {"molecule": "OC[C@H]1O[C@@](CO)(O[C@H]2O[C@H](CO)[C@@H](O)[C@H](O)[C@H]2O)[C@@H](O)[C@@H]1O", "note": "[sugar, reference compound]", "values": [{"measurement": "Average daily urine volume", "setting": "[10]; 1 g/day sugar with water for 1 week after 1 week washout, same subjects A-F", "value": "1620 mL and 1760 mL and 1650 mL and 1250 mL and 1850 mL and 1520 mL"}]}]}
